Data published in patent US20260158011A1 (Achieve Life Sciences, Inc., priority 2023, published 2026).

Tested on: adult e-cigarette users
Settings: 12 Weeks, N = 106, Safety Set
Excerpt: A second measurement consisted of biochemically verified continuous vaping abstinence at any time during treatment, with vaping abstinence at Week 3-6 or Week 6-9 for of cytisinicline treatment vs placebo. 7-day point prevalence rates were compared for vaping abstinence (Week 2 to 12) (FIG. 62). An additional measurement included reduction in daily vaping as measured by cotinine, where cytisinicline treatment vs placebo for a reduction in nicotine vaping using weekly quantitative cotinine levels from Week 2 to Week 12. Safety was assessed by adverse effects and serious adverse effects, considering number, severity, and attribution to study drug.

O=c1cccc2n1C[C@@H]1CNC[C@H]2C1 [cytisine, (−)-Cytisine]
At Least One AE, Events: 123 Events | At Least One AE, subjects: 56 (52.8) n (%) | At Least One Related Serious TEAE: 0 n (%)/Events | At Least One Serious TEAE: 0 n (%)/Events | At Least One TEAE Leading to Dose Reduction, Dose Interrupted or Study Drug Discontinuation: 7 (6.6) n (%) | Subjects with Dose Reduction: 3 (2.8) n (%) | TEAE Abdominal discomfort, subjects %: (0.9) % | TEAE Abdominal discomfort, subjects n: 1 n | TEAE Abnormal dreams, subjects %: (12.3) % | TEAE Abnormal dreams, subjects n: 13 n | TEAE Action Taken With Study Drug: Dose Interrupted, Events: 1 Events | TEAE Action Taken With Study Drug: Dose Interrupted, subjects: 1 (0.9) n (%) | TEAE Action Taken With Study Drug: Dose Not Changed, Events: 101 Events | TEAE Action Taken With Study Drug: Dose Not Changed, subjects: 51 (48.1) n (%) | TEAE Action Taken With Study Drug: Dose Reduced, Events: 3 Events | TEAE Action Taken With Study Drug: Dose Reduced, subjects: 3 (2.8) n (%) | TEAE Action Taken With Study Drug: Drug Withdrawn, Events: 7 Events | TEAE Action Taken With Study Drug: Drug Withdrawn, subjects: 4 (3.8) n (%) | TEAE Action Taken With Study Drug: Not Applicable, Events: 7 Events | TEAE Action Taken With Study Drug: Not Applicable, subjects: 5 (4.7) n (%) | TEAE Agitation, subjects: 0 n (%) | TEAE Akathisia, subjects %: (0.9) % | TEAE Akathisia, subjects n: 1 n | TEAE Alanine aminotransferase increased, subjects: 0 n (%) | TEAE Alveolar osteitis, subjects: 0 n (%) | TEAE Anal fissure, subjects %: (0.9) % | TEAE Anal fissure, subjects n: 1 n | TEAE Animal bite, subjects %: (0.9) % | TEAE Animal bite, subjects n: 1 n | TEAE Anxiety, subjects %: (9.4) % | TEAE Anxiety, subjects n: 10 n | TEAE Aspartate aminotransferase increased, subjects: 0 n (%) | TEAE Attention deficit hyperactivity disorder, subjects %: (0.9) % | TEAE Attention deficit hyperactivity disorder, subjects n: 1 n | TEAE Back pain, subjects %: (0.9) % | TEAE Back pain, subjects n: 1 n | TEAE Bronchitis, subjects %: (1.9) % | TEAE Bronchitis, subjects n: 2 n | TEAE Chlamydial infection, subjects %: (0.9) % | TEAE Chlamydial infection, subjects n: 1 n | TEAE Concussion, subjects: 0 n (%) | TEAE Constipation, subjects %: (1.9) % | TEAE Constipation, subjects n: 2 n | TEAE Decreased appetite, subjects %: (0.9) % | TEAE Decreased appetite, subjects n: 1 n | TEAE Depressed mood, subjects: 0 n (%) | TEAE Depression, subjects: 0 n (%) | TEAE Dermatitis contact, subjects %: (0.9) % | TEAE Dermatitis contact, subjects n: 1 n | TEAE Disturbance in attention, subjects %: (0.9) % | TEAE Disturbance in attention, subjects n: 1 n | TEAE Dizziness, subjects %: (2.8) % | TEAE Dizziness, subjects n: 3 n | TEAE Dry mouth, subjects %: (1.9) % | TEAE Dry mouth, subjects n: 2 n | TEAE Dyspepsia, subjects %: (0.9) % | TEAE Dyspepsia, subjects n: 1 n | TEAE Ear infection, subjects: 0 n (%) | TEAE Eye pruritus, subjects %: (0.9) % | TEAE Eye pruritus, subjects n: 1 n | TEAE Fatigue, subjects %: (5.7) % | TEAE Fatigue, subjects n: 6 n | TEAE Female sterilisation, subjects %: (0.9) % | TEAE Female sterilisation, subjects n: 1 n | TEAE Gastroenteritis norovirus, subjects: 0 n (%) | TEAE Gastroenteritis viral, subjects: 0 n (%) | TEAE Gastroenteritis, subjects %: (1.9) % | TEAE Gastroenteritis, subjects n: 2 n | TEAE Gout, subjects %: (0.9) % | TEAE Gout, subjects n: 1 n | TEAE Headache, subjects %: (6.6) % | TEAE Headache, subjects n: 7 n | TEAE Hot flush, subjects %: (0.9) % | TEAE Hot flush, subjects n: 1 n | TEAE Hyperhidrosis, subjects: 0 n (%) | TEAE Increased appetite, subjects %: (0.9) % | TEAE Increased appetite, subjects n: 1 n | TEAE Insomnia, subjects %: (10.4) % | TEAE Insomnia, subjects n: 11 n | TEAE Irritability, subjects %: (2.8) % | TEAE Irritability, subjects n: 3 n | TEAE Leading to Dose Reduction, Dose Interrupted or Study Drug Discontinuation: Abdominal discomfort: 1 (0.9) n (%) | TEAE Leading to Dose Reduction, Dose Interrupted or Study Drug Discontinuation: Abnormal dreams: 1 (0.9) n (%) | TEAE Leading to Dose Reduction, Dose Interrupted or Study Drug Discontinuation: Anal fissure: 1 (0.9) n (%) | TEAE Leading to Dose Reduction, Dose Interrupted or Study Drug Discontinuation: Anxiety: 2 (1.9) n (%) | TEAE Leading to Dose Reduction, Dose Interrupted or Study Drug Discontinuation: Depression: 0 n (%) | TEAE Leading to Dose Reduction, Dose Interrupted or Study Drug Discontinuation: Fatigue: 1 (0.9) n (%) | TEAE Leading to Dose Reduction, Dose Interrupted or Study Drug Discontinuation: Headache: 0 n (%) | TEAE Leading to Dose Reduction, Dose Interrupted or Study Drug Discontinuation: Insomnia: 2 (1.9) n (%) | TEAE Leading to Dose Reduction, Dose Interrupted or Study Drug Discontinuation: Irritability: 1 (0.9) n (%) | TEAE Leading to Dose Reduction, Dose Interrupted or Study Drug Discontinuation: Nausea: 0 n (%) | TEAE Leading to Dose Reduction, Dose Interrupted or Study Drug Discontinuation: Panic attack: 2 (1.9) n (%) | TEAE Leading to Dose Reduction, Dose Interrupted or Study Drug Discontinuation: Pregnancy: 0 n (%) | TEAE Menorrhagia, subjects %: (0.9) % | TEAE Menorrhagia, subjects n: 1 n | TEAE Migraine, subjects %: (0.9) %
